The target of one test is T1, TRα (Homo sapiens, UniProt P10827).
T1 construct: TR expression vector (full length TRα-CMV or TRβ-CMV); expressed in transfected cells; host or cells: HEK 293
T1 sequence (P10827 1-410 isoform P10827-2): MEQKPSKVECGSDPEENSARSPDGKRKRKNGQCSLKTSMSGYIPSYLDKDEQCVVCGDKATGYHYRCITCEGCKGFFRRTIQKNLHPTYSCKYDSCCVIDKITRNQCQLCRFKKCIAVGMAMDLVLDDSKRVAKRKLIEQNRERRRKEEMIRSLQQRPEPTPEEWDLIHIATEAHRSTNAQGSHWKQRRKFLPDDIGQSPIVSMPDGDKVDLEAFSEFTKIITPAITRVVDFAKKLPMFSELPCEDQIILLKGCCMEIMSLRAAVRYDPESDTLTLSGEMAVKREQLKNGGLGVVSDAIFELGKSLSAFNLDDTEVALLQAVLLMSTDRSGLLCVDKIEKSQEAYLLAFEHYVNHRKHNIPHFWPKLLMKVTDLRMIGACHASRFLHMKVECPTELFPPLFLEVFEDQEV
In words: Transactivation assay (DR4 TRE luciferase reporter, HEK 293), TRα. To be noted: HEK 293 transfected with full length TRα-CMV, 24 hours, firefly luciferase normalized to Renilla. It is filed as cell-based. How it is done: (§1) The cells were trypsinized with 0.25% trypsin, then diluted to 5×10^5 cells/mL with high glucose DMEM. […] 1.5 µg of TR expression vector (full length TRα-CMV or TRβ-CMV), 1.5 µg of a reporter plasmid containing a DR4 thyroid hormone response element (TRE) direct repeat spaced by four nucleotides (AGGTCAcaggAGGTCA) cloned upstream of a minimal thymidine kinase promoter linked to a firefly luciferase coding sequence, and 0.75 µg of a pRL-SV40 constitutive Renilla luciferase reporter plasmid were diluted into 540 µl of OptiMEM. 27 µL of lipofectamine reagent was diluted into 540 µL of OptiMEM. The plasmid and lipofectamine dilutions were combined then incubated at RT for 10 min. The mixture was then diluted into 4.29 mL of OptiMEM. Plates were washed with 100 µL of phosphate buffered saline (PBS) at pH 7.2 without magnesium or calcium chloride per well. Transfection mixtures were added at 50 µL per well, then incubated at 37° C. for 4 hours. Modified DME/F-12 Ham’s medium without phenol red containing 15 mM HEPES and bicarbonate, 5 mM L-glutamine, charcoal-stripped FBS, 50 units/mL penicillin and 50 µg/mL streptomycin was added at 50 µL per well, then the plates were incubated at 37° C. for 20 hours. Drug stocks were made at 10 mM in DMSO, then serially diluted to 1X concentrations in DME/F-12 Ham’s. Plates were washed with 100 µL of PBS (pH 7.2) per well. 100 µL of each drug stock was added to the wells in triplicate, and then the plates are incubated at 37° C. for 24 hours.
(§2) Cells were assayed for luciferase activity using the Promega DualGlo kit. 50 µl of Luciferase Reagent was added per well, the plate was rocked for 15 min at RT, and then the plate was read for firefly luciferase activity. A 50 µl volume of Stop & Glo Reagent was added per well, then the plate was read for Renilla luciferase activity.

Another test addresses T2, TRβ (Homo sapiens, UniProt P10828).
T2 construct: TR expression vector (full length TRα-CMV or TRβ-CMV); expressed in transfected cells; host or cells: HEK 293
T2 sequence (P10828 1-461): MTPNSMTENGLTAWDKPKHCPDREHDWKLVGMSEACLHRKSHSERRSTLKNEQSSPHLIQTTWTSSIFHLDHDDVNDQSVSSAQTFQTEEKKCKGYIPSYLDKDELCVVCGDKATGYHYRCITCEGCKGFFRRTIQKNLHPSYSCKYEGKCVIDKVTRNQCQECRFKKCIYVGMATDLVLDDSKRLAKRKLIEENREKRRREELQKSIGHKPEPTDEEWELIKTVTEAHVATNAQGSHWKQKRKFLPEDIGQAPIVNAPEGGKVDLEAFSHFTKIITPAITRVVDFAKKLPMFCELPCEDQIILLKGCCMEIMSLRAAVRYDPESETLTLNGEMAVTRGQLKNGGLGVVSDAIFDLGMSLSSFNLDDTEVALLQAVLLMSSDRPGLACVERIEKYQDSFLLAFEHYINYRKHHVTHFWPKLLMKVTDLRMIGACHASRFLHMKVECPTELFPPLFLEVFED
Briefly: Transactivation assay (DR4 TRE luciferase reporter, HEK 293), TRβ. The class given is cell-based. To be noted: HEK 293 transfected with full length TRβ-CMV, 24 hours, firefly luciferase normalized to Renilla. The method, then: as §1, §2
Background: Reporter assays use an easily measured gene product as a stand-in for the process of interest.

Test [1] addresses T3, Purified recombinant human FAAH (rhFAAH) (Homo sapiens, UniProt O00519).
T3 construct: purchased Cayman Chemical (Ann Arbor, MI, USA)
T3 sequence (O00519 1-579): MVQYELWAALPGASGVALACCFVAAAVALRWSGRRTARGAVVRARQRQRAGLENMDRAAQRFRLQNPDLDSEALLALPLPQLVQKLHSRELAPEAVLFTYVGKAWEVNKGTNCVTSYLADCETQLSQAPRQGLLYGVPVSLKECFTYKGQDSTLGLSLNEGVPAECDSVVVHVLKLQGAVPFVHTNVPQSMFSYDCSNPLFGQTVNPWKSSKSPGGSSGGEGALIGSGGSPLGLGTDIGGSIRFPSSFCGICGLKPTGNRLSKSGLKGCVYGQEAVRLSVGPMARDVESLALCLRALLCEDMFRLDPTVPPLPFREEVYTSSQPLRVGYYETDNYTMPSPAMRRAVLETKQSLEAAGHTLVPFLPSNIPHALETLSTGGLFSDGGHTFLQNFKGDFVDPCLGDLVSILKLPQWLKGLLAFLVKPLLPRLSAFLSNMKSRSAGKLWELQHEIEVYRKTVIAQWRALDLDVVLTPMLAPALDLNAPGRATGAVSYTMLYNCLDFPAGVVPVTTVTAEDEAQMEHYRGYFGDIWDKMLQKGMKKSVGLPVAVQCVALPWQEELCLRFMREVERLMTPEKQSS
In words: FAAH substrate evaluation (formation of acid metabolite). The class given is biochemical. Conditions: 0.5 ng/µL rhFAAH, 1 µM test compound, Tris-EDTA buffer pH 8.0, room temperature, 0-60 minutes. How it is done:
Purified recombinant human FAAH (rhFAAH) was purchased from Cayman Chemical (Ann Arbor, MI, USA). The total volume for each incubation was 400 µL containing a final 0.5 ng/µL rhFAAH, 1 µM test compound, 1.25% ethanol or 1 µM PF-3845 (FAAH inhibitor), and 0.1% bovine serum albumin in Tris-EDTA buffer at pH 8.0). The positive control was LL-341001. The incubation was conducted at the room temperature. At 0, 5, 15, 30 and 60 minutes, an aliquot of 30 µL reaction mixtures was removed and mixed with 300 µL acetonitrile containing 5 ng/mL terfenadine and 10 ng/mL tolbutamide as internal standards to quench the reaction. The resulting mixture was centrifuged at 4000 rpm, 4° C. for 15 minutes, and 100 µL supernatant was ready for LC-MS/MS analysis to measure the formation of acid metabolite.
Acquity Ultra Performance LC system from Waters was used for sample analysis. The chromatography was performed on a reverse phase Kinetex 2.6 µm C18 column, 2.1 × 30 mm, 100 Å. The mobile phase A comprised of 0.1% formic acid in water and mobile phase B comprised of 0.1% formic acid in acetonitrile with a 2-min run time at the flow rate of 0.8 mL/min for the acid metabolite from positive control or a 1.5 min run time at the flow rate of 0.9 mL/min for the acid metabolite of test compounds. The mass spectrometer (API-5500 and API Q Trap 4000 Applied Biosystems/MDS SCIEX Instruments, Framingham, MA, USA) was operated under ESI positive or negative ion MRM mode.
The formation of acid metabolite was monitored and quantified using one calibration point of 1 µM. The observed rate constant (ke) for the acid metabolite formation was calculated by plotting the metabolite concentration versus time of incubation with the slope being ke and is shown in Table 1.

Turning to `[2H]C([2H])(c1ccc(O)c(C(C)C)c1)c1c(Cl)cc(OCC(=O)O)cc1Cl` [Compound 4, 2-(3,5-dichloro-4-((4-hydroxy-3-isopropylphenyl)methyl-d2)phenoxy)acetic Acid], the EC50 at TRα and at TRβ was 1 to 1000 nM each time.
On to `[2H]C([2H])(Oc1cc(Cl)c(Cc2ccc(O)c(C(C)C)c2)c(Cl)c1)C(N)=O` [Compound 9, 2-(3,5-dichloro-4-(4-hydroxy-3-isopropylbenzyl)phenoxy)acetamide-2,2-d2], for which the “ke (observed rate constant for the acid metabolite formation)” value (shortened to “ke”) in test [1] was “A (A = ke is less than 3.0 and more than or equal to 0.1.)”.
Turning to `[2H]C([2H])(Oc1cc(Cl)c(Cc2ccc(O)c(C(C)C)c2)c(Cl)c1)C(=O)O` [Compound 8, 2-(3,5-dichloro-4-(4-hydroxy-3-isopropylbenzyl)phenoxy)acetic-2,2-d2 Acid], the EC50 on TRα and at TRβ was 1 to 1000 nM throughout.
As to `[2H]C([2H])(Oc1cc(C)c(Cc2ccc(O)c(C(C)C)c2)c(C)c1)C(=O)NC` [Compound 17, 2-(4-(4-hydroxy-3-isopropylbenzyl)-3,5-dimethylphenoxy)-N-methylacetamide-2,2-d2], the “ke” value in test [1] was “A (A = ke is less than 3.0 and more than or equal to 0.1.)”.
Regarding `[2H]c1c(Cl)c(Cc2ccc(O)c(C(C)C)c2)c(Cl)c([2H])c1OCC(=O)O` [Compound 6, 2-(3,5-dichloro-4-(4-hydroxy-3-isopropylbenzyl)phenoxy-2,6-d2)acetic Acid], the EC50 on TRα and at TRβ was 1 to 1000 nM in each case.
Take `[2H]C([2H])([2H])C([2H])(c1cc(Cc2c(Cl)cc(OCC(=O)O)cc2Cl)ccc1O)C([2H])([2H])[2H]` [Compound A-15]: the EC50 at TRα and on TRβ was 1 to 1000 nM in each case.
Consider `[2H]C([2H])(c1ccc(O)c(C(C)C)c1)c1c(C)cc(OCC(=O)NC)cc1C` [Compound 13, 2-(4-((4-hydroxy-3-isopropylphenyl)methyl-d2)-3,5-dimethylphenoxy)-N-methylacetamide], for which the “ke” value in test [1] was “A (A = ke is less than 3.0 and more than or equal to 0.1.)”.
Same read-out and setting: to `[2H]C([2H])(c1ccc(O)c(C(C)C)c1)c1c(Cl)cc(OCC(N)=O)cc1Cl` [Compound 5, 2-(3,5-dichloro-4-((4-hydroxy-3-isopropylphenyl)methyl-d2)phenoxy)acetamide] belongs “A (A = ke is less than 3.0 and more than or equal to 0.1.)”.
On to `[2H]C([2H])([2H])C([2H])(c1cc(Cc2c(Cl)cc(OCC(=O)NC)cc2Cl)ccc1O)C([2H])([2H])[2H]` [Compound 1, 2-(3,5-dichloro-4-(4-hydroxy-3-(propan-2-yl-d7)benzyl)phenoxy)-N-Methylacetamide], for which the “ke” value in test [1] was “A (A = ke is less than 3.0 and more than or equal to 0.1.)”.
As to “2-(3,5-dichloro-4-(hydroxy-3-(propan-2-yl-d7)benzyl)phenoxy)acetic Acid [Compound 18]”, the concentration giving a half-maximal response (EC50) at TRα and at TRβ was 1 to 1000 nM throughout.
`[2H]c1c(Cl)c(Cc2ccc(O)c(C(C)C)c2)c(Cl)c([2H])c1OCC(N)=O` [Compound 7, 2-(3,5-dichloro-4-(4-hydroxy-3-isopropylbenzyl)phenoxy-2,6-d2)acetamide]: the “ke” value in test [1] was “A (A = ke is less than 3.0 and more than or equal to 0.1.)”.

Values taken from patent US20230348364A1, “ISOTOPIC THYROMIMETIC COMPOUNDS” (Autobahn Therapeutics, Inc., priority 2020, published 2023).
